Experimental data taken from patent US10377770B2 (Novartis AG, priority 2015, dated 2019).

These compounds were tested against C-Raf FL (full length CRAF with Y340E and Y341E activating mutations, co-expressed with h14-3-3 zeta) (Homo sapiens (Human), UniProt P04049, Y340E/Y341E) (assay: In vitro Raf activity determination, AlphaScreen p-MEK readout, c-Raf (C-Raf FL)). Conditions: c-Raf approximately 4 nM, ATP 1 μM, pre-incubation 60 minutes, reaction 1 hour.
Sequence of C-Raf FL (full length CRAF with Y340E and Y341E activating mutations, co-expressed with h14-3-3 zeta) (P04049 whole entry Y340E/Y341E): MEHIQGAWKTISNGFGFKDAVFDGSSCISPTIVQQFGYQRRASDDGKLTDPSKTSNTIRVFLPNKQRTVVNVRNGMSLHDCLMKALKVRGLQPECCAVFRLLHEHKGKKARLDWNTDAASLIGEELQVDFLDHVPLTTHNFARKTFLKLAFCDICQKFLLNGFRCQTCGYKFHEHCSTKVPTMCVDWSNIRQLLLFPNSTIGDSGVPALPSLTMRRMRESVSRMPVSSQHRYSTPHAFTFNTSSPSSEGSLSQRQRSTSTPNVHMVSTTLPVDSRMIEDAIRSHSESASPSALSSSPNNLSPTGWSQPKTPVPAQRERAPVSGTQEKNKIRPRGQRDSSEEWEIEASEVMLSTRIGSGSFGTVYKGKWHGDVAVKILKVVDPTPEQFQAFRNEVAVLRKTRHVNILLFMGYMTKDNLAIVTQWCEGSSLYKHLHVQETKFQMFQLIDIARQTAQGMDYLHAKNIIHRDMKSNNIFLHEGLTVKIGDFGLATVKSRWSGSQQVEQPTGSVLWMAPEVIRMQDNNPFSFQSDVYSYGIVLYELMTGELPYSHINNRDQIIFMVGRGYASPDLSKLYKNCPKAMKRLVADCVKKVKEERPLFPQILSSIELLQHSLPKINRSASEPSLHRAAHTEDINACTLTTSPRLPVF
Sequence of C-Raf FL (full length CRAF with Y340E and Y341E activating mutations, co-expressed with h14-3-3 zeta) (P63104 whole entry partner): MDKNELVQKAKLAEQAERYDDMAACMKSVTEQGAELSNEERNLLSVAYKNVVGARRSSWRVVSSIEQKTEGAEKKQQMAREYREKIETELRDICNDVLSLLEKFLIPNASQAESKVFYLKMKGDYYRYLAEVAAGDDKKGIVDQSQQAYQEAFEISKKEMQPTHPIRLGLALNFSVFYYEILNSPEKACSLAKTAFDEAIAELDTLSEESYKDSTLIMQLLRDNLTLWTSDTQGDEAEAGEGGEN
Format: biochemical
In short: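 Full-length C-Raf (~4 nM) pre-incubated 60 min at room temperature with compound and kinase-dead biotinylated MEK1 (~10 nM) in Tris pH 7.5, 15 mM MgCl2, BSA, DTT. Reaction started with 1 μM ATP and run 1 h at room temperature. Phospho-MEK detected by AlphaScreen with anti-p-MEK antibody.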
`Cc1ccc(NC(=O)c2ccnc(C(F)(F)F)c2)cc1-c1cnc2c(c1)N1CCOC[C@@H]1[C@H](CO)C2` [Example 494, N-(3-((4aS,5R)-5-(hydroxymethyl)-1,2,4,4a,5,6-hexahydro-[1,4]oxazino[4,3-a][1,5]naphthyridin-9-yl)-4-methyphenyl)-2-(trifluoromethyl)iso-nicotinamide] was tested, and the IC50 was 0.1 nM.
Work on `Cc1ccc(NC(=O)c2ccnc(C(F)(F)F)c2)cc1-c1ccc2c(c1)N1CCOC[C@@H]1[C@](F)(CO)C2` [Example 399, N-(3-((4aR,5S)-5-fluoro-5-(hydroxymethyl)-1,2,4,4a,5,6-hexahydro-[1,4]oxazino[4,3-a]quinolin-9-yl)-4-methylphenyl)-2-(trifluoromethyl)isonicotinamide] yielded an IC50 of 0.3 nM.
Work on `Cc1ccc(NC(=O)c2cnnc(C(F)(F)F)c2)cc1-c1cc2c(cc1F)C[C@](F)(CO)[C@H]1COCCN21` [Example 477, N-(3-((4aR,5R)-5,8-difluoro-5-(hydroxymethyl)-1,2,4,4a,5,6-hexahydro-[1,4]oxazino[4,3-a]quinolin-9-yl)-4-methylphenyl)-6-(trifluoromethyl) pyridazine-4-carboxamide] yielded an IC50 of 0.1 nM.
In the case of `CCN1C(=O)[C@H]2COCC[C@]2(C)c2cc(-c3cc(NC(=O)c4ccnc(C(C)(F)F)c4)ccc3C)cnc21` (stereo in doubt) [Example 344, 2-(1,1-difluoroethyl)-N-(3-((4a,10b-trans)6-ethyl-10b-methyl-5-oxo-2,4,4a,5,6,10b-hexahydro-1H-pyrano[3,4-c][1,8]naphthyridin-9-yl)-4-methylphenyl)isonicotinamide], the IC50 is reported as 0.1 nM.
Compound `Cc1ccc(NC(=O)c2ccnc(C(F)(F)F)c2)cc1-c1cnc2c(c1)N1CCOCCC1CC(=O)N2CCO` (stereo not shown) [Example 318, N-(3-(8-(2-hydroxyethyl)-7-oxo-1,2,4,5,5a,6,7,8-octahydropyrido[3′, 2′:2,3][1,4]diazepino [1,7-d][1,4]oxazepin-11-yl)-4-methylphenyl)-2-(trifluoromethyl) isonicotinamide] has an IC50 of 1.4 nM.
Compound `CCN1C(=O)C2COCCC2(C)c2cc(-c3cc(NC(=O)c4cccc(C(F)(F)F)c4)cnc3C)cnc21` (stereo not drawn) [Example 349, N-(5-((4a,10b- trans)-6-ethyl-10b-methyl-5-oxo-2,4,4a,5,6,10b-hexahydro-1H-pyrano[3,4-c][1,8]naphthyridin-9-yl)-6-methylpyridin-3-yl)-3-(trifluoromethyl) benzamide] has an IC50 of 3 nM.
Work on `Cc1ccc(NC(=O)c2ccnc(C(F)(F)F)c2)cc1-c1ccc2c(c1)N1CCOC[C@H]1[C@](F)(CO)C2` [Example 382, N-(3-((4aS,5S)-5-fluoro-5-(hydroxymethyl)-1,2,4,4a,5,6-hexahydro-[1,4]oxazino[4,3-a]quinolin-9-yl)-4-methylphenyl)-2-(trifluoromethyl)isonicotinamide] yielded an IC50 of 0.2 nM.
`CNC(=O)C1Cc2ccc(-c3cc(NC(=O)c4cccc(C(F)(F)F)c4)cnc3C)cc2N2CCOCC12` (racemic) [Example 68, (rac)-N-methyl-9-(2-methyl-5-(3-(trifluoromethyl)benzamido)pyridin-3-yl)-1,2,4,4a,5,6-hexahydro-[1,4]oxazino[4,3-a]quinoline-5-carboxamide] showed an IC50 of 0.34 nM.
`CCN1C(=O)[C@H]2COCC[C@@H]2c2cc(-c3cc(NC(=O)c4ccnc(C(C)(C)F)c4)cnc3C)cnc21` [Example 310, N-(5-((4aR, 10bS)-6-ethyl-5-oxo-1,4,4a,5,6,10b-hexahydro-2H-pyrano[3,4-c][1,8]naphthyridin-9-yl)-6-methylpyridin-3-yl)-2-(2-fluoropropan-2-yl)isonicotinamide] showed an IC50 of 0.1 nM.
For `Cc1ccc(NC(=O)c2cncc(C(F)(F)F)c2)cc1-c1cnc2c(c1)N1CCOC[C@@H]1C[C@@H]2O` [Example 146, N-(3-((4aS,6S)-6-hydroxy-1,2,4,4a,5,6-hexahydro-[1,4]oxazino[4,3-a][1,5]naphthyridin-9-yl)-4-methylphenyl)-5-(trifluoromethyl)nicotinamide], the IC50 was 0.012 nM.
`CCN1C(=O)C2COCCN2c2cc(-c3cc(NC(=O)c4ccnc(C(F)(F)F)c4)ccc3C)cnc21` (stereo in doubt) [Example 114, (S)-N-(3-(6-Ethyl-5-oxo-1,2,4,4a,5,6-hexahydropyrido[2′,3′:5,6]pyrazino[2,1-c][1,4]oxazin-9-yl)-4-methylphenyl)-2-(trifluoromethyl)isonicotinamide] gave an IC50 of 0.07 nM.
With `Cc1ccc(NC(=O)c2cnnc(C(F)(F)F)c2)cc1-c1cc(F)c2c(c1)N1CCOC[C@H]1[C@](F)(CO)C2` [Example 423, N-(3-((4aS,5S)-5,7-difluoro-5-(hydroxymethyl)-1,2,4,4a,5,6-hexahydro-[1,4]oxazino[4,3-a]quinolin-9-yl)-4-methylphenyl)-6-(trifluoromethyl)pyridazine-4-carboxamide] the IC50 was 0.7 nM.
`Cc1ccc(NC(=O)c2ccnc(C(F)(F)F)c2)cc1-c1ccc2c(c1)N1CCOCC1c1cn(C)nc1-2` (racemic) [Example 45, (rac)-N-(4-methyl-3-(2-methyl-3b,4,6,7-tetrahydro-2H-[1,4]oxazino[4,3-a]pyrazolo[4,3-c]quinolin-10-yl)phenyl)-2-(trifluoromethyl)isonicotinamide] gave an IC50 of 0.17 nM.
In the case of `Cc1ccc(NC(=O)c2ccnc(C(C)(F)F)c2)cc1-c1ccc2c(c1)N1CCOCC1C(CO)C2` (racemic) [Example 60, (rac)-2-(1,1-difluoroethyl)-N-(3-(5-(hydroxymethyl)-1,2,4,4a,5,6-hexahydro-[1,4]oxazino[4,3-a]quinolin-9-yl)-4-methylphenyl)isonicotinamide], the IC50 is reported as 0.019 nM.
With `CCN1C(=O)C2CCOCCC2c2cc(-c3cc(NC(=O)c4ccnc(C(F)(F)F)c4)ccc3C)cnc21` (stereo not drawn) [Example 249, N-(3-((5a, 11b- trans)-7-ethyl-6-oxo-1,2,4,5,5a,6,7,11boctahydrooxepino [4,5-c][1,8]naphthyridin-4,5-10-yl)-4-methylphenyl)-2-(trifluoromethyl) isonicotinamide] the IC50 was 0.1 nM.
With `CCN1C[C@H]2COCCN2c2cc(-c3cc(NC(=O)c4cccc(C(F)(F)F)c4)cnc3C)cnc2C1=O` [Example 497, (S)-N-(5-(6-ethyl-7-oxo-1,2,4a,5,6,7-hexahydro-4H-[1,4]oxazino[4,3-a]pyrido[2,3-f][1,4]diazepin-10-yl)-6-methylpyridin-3-yl)-3-(trifluoromethyl) benzamide] the IC50 was 1.4 nM.
In the case of `CCN1C(=O)[C@H]2COCC[C@@H]2c2cc(-c3cc(NC(=O)c4cccc(C(F)(F)F)c4)cnc3C)cnc21` [Example 309, N-(5-((4aR, 10bS)-6-ethyl-5-oxo-1,4,4a,5,6,10b-hexahydro-2H-pyrano[3,4 - c][1,8]naphthyridin-9-yl)-6-methylpyridin-3-yl)-3-(trifluoromethyl) benzamide], the IC50 is reported as 0.3 nM.
`CNC[C@@H]1Cc2ncc(-c3cc(NC(=O)c4ccnc(C(F)(F)F)c4)ccc3C)cc2N2CCOC[C@@H]12` [Example 530, N-(4-methyl-3-((4aR,5S)-5-((methylamino)meth-yl)-1,2,4,4a,5,6-hexahydro-[1,4]oxazino[4,3-a][1,5]naphthyridin-9-yl)phenyl)-2-(trifluoromethyl)iso-nicotinamide] showed an IC50 of 0.4 nM.
For `Cc1ccc(NC(=O)c2ccnc(C(C)(F)F)c2)cc1-c1ccc2c(c1)N1CCOCC1C1(COC1)C2` (racemic) [Example 55, (rac)-2-(1,1-difluoroethyl)-N-(4-methyl-3-(2,4,4a,6-tetrahydro-1H-spiro[[1,4]oxazino[4,3-a]quinoline-5,3′-oxetan]-9-yl)phenyl)isonicotinamide], the IC50 was 0.022 nM.
Compound `Cc1ccc(NC(=O)c2cncc(C(F)(F)F)c2)cc1-c1cnc2c(c1)N1CCOC[C@H]1C[C@@H]2O` (racemic) [Example 144, rac-cis-N-(3-(6-hydroxy-1,2,4,4a,5,6-hexahydro-[1,4]oxazino[4,3-a][1,5]naphthyridin-9-yl)-4-methylphenyl)-5-(trifluoromethyl)nicotinamide] has an IC50 of 0.0023 nM.
With `Cc1ccc(NC(=O)c2cncc(C(F)(F)F)c2)cc1-c1cnc2c(c1)N1CCOC[C@H]1C[C@H]2O` [Example 145, N-(3-((4aR,6R)-6-hydroxy-1,2,4,4a,5,6-hexahydro-[1,4]oxazino[4,3-a][1,5]naphthyridin-9-yl)-4-methylphenyl)-5-(trifluoromethyl)nicotinamide] the IC50 was 0.017 nM.
`Cc1ccc(NC(=O)c2cnnc(C(F)(F)F)c2)cc1-c1cnc2c(c1)N1CCOC[C@H]1C[C@H]2OCCO` [Example 512, N-(3-((4aR,6R)-6-(2-hydroxyethoxy)-1,2,4,4a,5,6-hexahydro-[1,4]oxazino[4,3-a][1,5]naphthyridin-9-yl)-4-methylphenyl)-6-(trifluorometh-yl)pyridazine-4-carboxamide] showed an IC50 of 0.4 nM.
Work on `CCN1C(=O)OC2COCCC2c2cc(-c3cc(NC(=O)c4ccnc(C(F)(F)F)c4)ccc3C)cnc21` [Example 297, N-(3-((4aS,11bR- cis)7-ethyl-6-oxo-2,4,4a,6,7,11b-hexahydro-1H-pyrano[4,3-f]pyrido[2,3-d][1,3]oxazepin-10-yl)-4-methylphenyl)-2-(trifluoromethyl) isonicotinamide] yielded an IC50 of 0.2 nM.
Work on `CCN1C(=O)[C@@H]2COCC[C@H]2c2cc(-c3cc(NC(=O)c4cccc(C(F)(F)F)c4)cnc3C)cnc21` [Example 312, N-(5-((4aS, 10bR)-6-ethyl-5-oxo-1,4,4a,5,6,10b-hexahydro-2H-pyrano[3,4-c][1,8]naphthyridin-9-yl)-6-methylpyridin-3-yl)-3-(trifluoromethyl) benzamide] yielded an IC50 of 0.1 nM.
`CCNC(=O)C1Cc2ccc(-c3cc(NC(=O)c4cccc(C(F)(F)F)c4)cnc3C)cc2N2CCOCC12` (racemic) [Example 75, (rac)-N-ethyl-9-(2-methyl-5-(3-(trifluoromethyl)benzamido)pyridin-3-yl)-1,2,4,4a,5,6-hexahydro-[1,4]oxazino[4,3-a]quinoline-5-carboxamide] gave an IC50 of 0.48 nM.
